Test results as given in ChEMBL document CHEMBL1153238, “Spirodiketopiperazine-based CCR5 antagonists: Improvement of their pharmacokinetic profiles” (Bioorg Med Chem Lett, 2010).
pIC50: −log10 of the molar value.

Key:
[1] = tested on: Human immunodeficiency virus 1; test: Antiviral activity against HIV1 Ba-L(R5) infected in human PBMC by p24 antigen capture assay; conditions: Human immunodeficiency virus 1, Ba-L(R5)
[2] = target: C-C chemokine receptor type 5 (Homo sapiens, UniProt P51681); test: Antagonist activity at human CCR5 receptor overexpressed in CHO cells assessed as inhibition of MIP-1-alpha-induced calcium mobilization; type: functional, cell-based
[3] = Solubility of the compound; type: physicochemical
[4] = tested on: Liver microsomes; test: Metabolic stability in rat liver microsomes assessed as compound remaining after 15 mins; type: ADME, Microsome; conditions: 0.25 h
[5] = tested on: Rattus norvegicus; test: Half life in rat at 30 mg/kg, iv; type: ADME, organism-based; design: dose 30 mg/kg, route intravenous; conditions: in vivo
[6] = Cmax in rat at 30 mg/kg, po administered as single dose; type: ADME, organism-based; design: dose 30 mg/kg, route oral; conditions: in vivo
[7] = tested on: Rattus norvegicus; test: Bioavailability in rat at 30 mg/kg, po administered as single dose; type: ADME, organism-based; conditions: in vivo
[8] = tested on: Rattus norvegicus; test: AUC (0 to infinity) in rat at 30 mg/kg, iv; type: ADME, organism-based, Plasma; design: time infinity, dose 30 mg/kg, route intravenous; conditions: in vivo
[9] = tested on: Rattus norvegicus; test: AUC (0 to infinity) in rat at 30 mg/kg, po administered as single dose; type: ADME, organism-based, Plasma; design: time infinity, dose 30 mg/kg, route oral; conditions: in vivo
[10] = tested on: Rattus norvegicus; test: Half life in rat at 30 mg/kg, po administered as single dose; type: ADME, organism-based; design: dose 30 mg/kg, route oral; conditions: in vivo

C-C chemokine receptor type 5, sequence (P51681 whole entry): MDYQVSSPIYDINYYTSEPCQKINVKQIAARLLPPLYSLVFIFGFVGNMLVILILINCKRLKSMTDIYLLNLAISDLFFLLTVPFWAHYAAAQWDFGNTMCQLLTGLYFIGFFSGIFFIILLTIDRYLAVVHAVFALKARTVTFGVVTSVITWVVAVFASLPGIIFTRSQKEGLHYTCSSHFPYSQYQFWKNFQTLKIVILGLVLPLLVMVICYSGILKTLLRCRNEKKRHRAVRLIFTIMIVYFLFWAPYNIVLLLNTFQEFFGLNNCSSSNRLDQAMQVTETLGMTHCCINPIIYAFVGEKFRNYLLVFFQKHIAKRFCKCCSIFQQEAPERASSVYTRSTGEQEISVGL

Cc1c(O)cccc1C(=O)N[C@@H](CSc1ccccc1)[C@H](O)CN1C[C@H]2CCCC[C@H]2C[C@H]1C(=O)NC(C)(C)C
pIC50 [1]: 7.92

CCCCN1C(=O)C(CC(C)C)NC(=O)C12CCN(Cc1ccc3c(c1)OCCO3)CC2 (racemic)
pIC50 [2]: 6.74

CCCCN1C(=O)C(CC2CCCCC2)NC(=O)C12CCN(Cc1ccc(Oc3ccccc3)cc1)CC2.Cl (racemic)
solubility [3]: < 5 µM
Stability [4]: 33%
t1/2 [5]: 0.332 h
Cmax [6]: 16.7 ng/mL
F [7]: 1.9%
AUC [8]: 400 ng·h/mL
AUC [9]: 74.4 ng·h/mL
t1/2 [10]: 1.72 h
